System: anticorps anti-nef
Assay: ELISA for detection of anti-nef antibodies on coated peptides or nef
Format: binding, humain
Settings: for nombre de sérums anti-nef positifs ayant réagi: ELISA, out of 31 anti-nef positive sera; for intensité de l'immunoréactivité (OD), Serum 1: Serum 1, anti-nef positive; for intensité de l'immunoréactivité (OD), Serum 1 / intensité de l'immunoréactivité (OD), Serum 2 / intensité de l'immunoréactivité (OD), Serum 3 / intensité de l'immunoréactivité (OD), Serum 4 / intensité de l'immunoréactivité (OD), Serum 5 / intensité de l'immunoréactivité (OD), Serum 6 / intensité de l'immunoréactivité (OD), Serum 7 / intensité de l'immunoréactivité (OD), Serum 8 / intensité de l'immunoréactivité (OD), Serum 9 / intensité de l'immunoréactivité (OD), Serum 10 / intensité de l'immunoréactivité (OD), Serum 11 / intensité de l'immunoréactivité (OD), Serum 12 / intensité de l'immunoréactivité (OD), Serum 13 / intensité de l'immunoréactivité (OD), Serum 14 / intensité de l'immunoréactivité (OD), Serum 15 / intensité de l'immunoréactivité (OD), Serum 16 / intensité de l'immunoréactivité (OD), Serum 17 / intensité de l'immunoréactivité (OD), Serum 18 / intensité de l'immunoréactivité (OD), Serum 19 / intensité de l'immunoréactivité (OD), Serum 20 / intensité de l'immunoréactivité (OD), Serum 21 / intensité de l'immunoréactivité (OD), Serum 22 / intensité de l'immunoréactivité (OD), Serum 23 / intensité de l'immunoréactivité (OD), Serum 24 / intensité de l'immunoréactivité (OD), Serum 25 / intensité de l'immunoréactivité (OD), Serum 26 / intensité de l'immunoréactivité (OD), Serum 27 / intensité de l'immunoréactivité (OD), Serum 28 / intensité de l'immunoréactivité (OD), Serum 29 / intensité de l'immunoréactivité (OD), Serum 30 / intensité de l'immunoréactivité (OD), Serum 31 / intensité de l'immunoréactivité (OD), Serum 32 / intensité de l'immunoréactivité (OD), Serum 33: 500 ng coated per well; for intensité de l'immunoréactivité (OD), Serum 2: Serum 2, anti-nef positive; for intensité de l'immunoréactivité (OD), Serum 3: Serum 3, anti-nef positive; for intensité de l'immunoréactivité (OD), Serum 4: Serum 4, anti-nef positive; for intensité de l'immunoréactivité (OD), Serum 5: Serum 5, anti-nef positive; for intensité de l'immunoréactivité (OD), Serum 6: Serum 6, anti-nef positive; for intensité de l'immunoréactivité (OD), Serum 7: Serum 7, anti-nef positive; for intensité de l'immunoréactivité (OD), Serum 8: Serum 8, anti-nef positive; for intensité de l'immunoréactivité (OD), Serum 9: Serum 9, anti-nef positive; for intensité de l'immunoréactivité (OD), Serum 10: Serum 10, anti-nef positive; for intensité de l'immunoréactivité (OD), Serum 11: Serum 11, anti-nef positive; for intensité de l'immunoréactivité (OD), Serum 12: Serum 12, anti-nef positive; for intensité de l'immunoréactivité (OD), Serum 13: Serum 13, anti-nef positive; for intensité de l'immunoréactivité (OD), Serum 14: Serum 14, anti-nef positive; for intensité de l'immunoréactivité (OD), Serum 15: Serum 15, anti-nef positive; for intensité de l'immunoréactivité (OD), Serum 16: Serum 16, anti-nef positive; for intensité de l'immunoréactivité (OD), Serum 17: Serum 17, anti-nef positive; for intensité de l'immunoréactivité (OD), Serum 18: Serum 18, anti-nef positive; for intensité de l'immunoréactivité (OD), Serum 19: Serum 19, anti-nef positive; for intensité de l'immunoréactivité (OD), Serum 20: Serum 20, anti-nef positive; for intensité de l'immunoréactivité (OD), Serum 21: Serum 21, anti-nef positive; for intensité de l'immunoréactivité (OD), Serum 22: Serum 22, anti-nef positive; for intensité de l'immunoréactivité (OD), Serum 23: Serum 23, anti-nef positive; for intensité de l'immunoréactivité (OD), Serum 24: Serum 24, anti-nef positive; for intensité de l'immunoréactivité (OD), Serum 25: Serum 25, anti-nef positive; for intensité de l'immunoréactivité (OD), Serum 26: Serum 26, anti-nef positive; for intensité de l'immunoréactivité (OD), Serum 27: Serum 27, anti-nef positive; for intensité de l'immunoréactivité (OD), Serum 28: Serum 28, anti-nef positive; for intensité de l'immunoréactivité (OD), Serum 29: Serum 29, anti-nef positive; for intensité de l'immunoréactivité (OD), Serum 30: Serum 30, anti-nef positive; for intensité de l'immunoréactivité (OD), Serum 31: Serum 31, anti-nef positive; for intensité de l'immunoréactivité (OD), Serum 32: Serum 32, anti-nef negative control serum; for intensité de l'immunoréactivité (OD), Serum 33: Serum 33, anti-nef negative control serum
Protocol: Des plaques de microtitration à 96 puits ont été recouvertes une nuit avec 500 ng de protéine nef bactérienne, à 37°C ou avec 500 ng de peptides synthétiques par puits dans 50µl de PBS à pH 7,4. Après saturation avec 400 µl de PBS pH 7,4, contenant 5% de caséine, durant 1 heure à 37°C et lavage avec PBS à pH 7,4, 0,5% de BSA, 0,01% tween, 50 µl de sérums à différentes dilutions ont été ajoutés pendant 2 heures à 37°C. Après le rinçage, 50µl de complexes d'IgG de souris anti-humaine-(H + L)-peroxydase 1:1000 ont été incubés pendant 1 heure à 37°C. Après un nouveau rinçage, 100µl de OPD ont été ajoutés pendant 30mn à température ambiante dans l'obscurité. La réaction de l'enzyme a été arrêtée par addition de 50µl d'acide sulfurique 4N et la densité optique des plaques a été lue à 492 nm/620 nm. Les plaques recouvertes avec la caséine ont été utilisées comme contrôle négatif.
En vue d'étudier la possibilité d'utiliser des peptides synthétiques en tant qu'antigènes pour la détection d'anticorps anti-nef chez des patients infectés par HIV, 8 peptides synthétiques couvrant la totalité de la séquence de la protéine nef de HIV-1 (figure 4) ont été utilisés dans un test ELISA avec 31 sérums anti-nef positifs et 2 sérums anti-nef négatifs utilisés comme contrôle. Les recombinants nef ont été utilisés comme contrôle positif dans les tests ELISA et la caséine a été utilisée comme contrôle négatif. Les résultats de ces expériences sont donnés dans le tableau 4 qui illustre l'essai suivant: Essai ELISA sur 31 sérums anti-nef-positifs et 2 sérums anti-nef- négatifs, soit pré-recouverts avec des peptides synthétiques (PF 11 à PF 18), soit en utilisant nef, la caséine ou un mélange de peptides PF 12 et PF 17. Les sérums ont été sélectionnés au hasard parmi des sérums anti-nef positifs et anti-nefs négatifs testés par la méthode RIA en utilisant ¹²⁵I nef. L'intensité de l'immunoradioactivité est notée "-" pour une densité optique (OD) inférieure à 0,2; "+" pour OD = 0,2 à 0,4; "++" pour OD = 0,4 à 0,8 et "+++" pour OD = 0,8 à 2,0.

XCVGFPVTPQVPLRPMTYKAAVDLSHFLKEKGGLEGLIHSQRRQDILZ [PF14]
nombre de sérums anti-nef positifs ayant réagi: 3 | intensité de l'immunoréactivité (OD), Serum 1: - (pour une densité optique (OD) inférieure à 0,2) | intensité de l'immunoréactivité (OD), Serum 2: - (pour une densité optique (OD) inférieure à 0,2) | intensité de l'immunoréactivité (OD), Serum 3: +++ (pour OD = 0,8 à 2,0) | intensité de l'immunoréactivité (OD), Serum 4: - (pour une densité optique (OD) inférieure à 0,2) | intensité de l'immunoréactivité (OD), Serum 5: - (pour une densité optique (OD) inférieure à 0,2) | intensité de l'immunoréactivité (OD), Serum 6: - (pour une densité optique (OD) inférieure à 0,2) | intensité de l'immunoréactivité (OD), Serum 7: - (pour une densité optique (OD) inférieure à 0,2) | intensité de l'immunoréactivité (OD), Serum 8: - (pour une densité optique (OD) inférieure à 0,2) | intensité de l'immunoréactivité (OD), Serum 9: - (pour une densité optique (OD) inférieure à 0,2) | intensité de l'immunoréactivité (OD), Serum 10: - (pour une densité optique (OD) inférieure à 0,2) | intensité de l'immunoréactivité (OD), Serum 11: - (pour une densité optique (OD) inférieure à 0,2) | intensité de l'immunoréactivité (OD), Serum 12: - (pour une densité optique (OD) inférieure à 0,2) | intensité de l'immunoréactivité (OD), Serum 13: - (pour une densité optique (OD) inférieure à 0,2) | intensité de l'immunoréactivité (OD), Serum 14: ++ (pour OD = 0,4 à 0,8) | intensité de l'immunoréactivité (OD), Serum 15: - (pour une densité optique (OD) inférieure à 0,2) | intensité de l'immunoréactivité (OD), Serum 16: - (pour une densité optique (OD) inférieure à 0,2) | intensité de l'immunoréactivité (OD), Serum 17: - (pour une densité optique (OD) inférieure à 0,2) | intensité de l'immunoréactivité (OD), Serum 18: - (pour une densité optique (OD) inférieure à 0,2) | intensité de l'immunoréactivité (OD), Serum 19: - (pour une densité optique (OD) inférieure à 0,2) | intensité de l'immunoréactivité (OD), Serum 20: - (pour une densité optique (OD) inférieure à 0,2) | intensité de l'immunoréactivité (OD), Serum 21: ++ (pour OD = 0,4 à 0,8) | intensité de l'immunoréactivité (OD), Serum 22: - (pour une densité optique (OD) inférieure à 0,2) | intensité de l'immunoréactivité (OD), Serum 23: - (pour une densité optique (OD) inférieure à 0,2) | intensité de l'immunoréactivité (OD), Serum 24: - (pour une densité optique (OD) inférieure à 0,2) | intensité de l'immunoréactivité (OD), Serum 25: - (pour une densité optique (OD) inférieure à 0,2) | intensité de l'immunoréactivité (OD), Serum 26: - (pour une densité optique (OD) inférieure à 0,2) | intensité de l'immunoréactivité (OD), Serum 27: - (pour une densité optique (OD) inférieure à 0,2) | intensité de l'immunoréactivité (OD), Serum 28: - (pour une densité optique (OD) inférieure à 0,2) | intensité de l'immunoréactivité (OD), Serum 29: - (pour une densité optique (OD) inférieure à 0,2) | intensité de l'immunoréactivité (OD), Serum 30: - (pour une densité optique (OD) inférieure à 0,2) | intensité de l'immunoréactivité (OD), Serum 31: - (pour une densité optique (OD) inférieure à 0,2) | intensité de l'immunoréactivité (OD), Serum 32: - (pour une densité optique (OD) inférieure à 0,2) | intensité de l'immunoréactivité (OD), Serum 33: - (pour une densité optique (OD) inférieure à 0,2)

XGGKWSKSSVVGWPTVRERMRRAEPAADGVGAASRDLEKHGAITSSNTA ATNAACAWLEAQEEEEVGZ [PF12, protéine F HIV-1, séquence 1-66]
nombre de sérums anti-nef positifs ayant réagi: 16 | intensité de l'immunoréactivité (OD), Serum 1: + (pour OD = 0,2 à 0,4) | intensité de l'immunoréactivité (OD), Serum 2: - (pour une densité optique (OD) inférieure à 0,2) | intensité de l'immunoréactivité (OD), Serum 3: +++ (pour OD = 0,8 à 2,0) | intensité de l'immunoréactivité (OD), Serum 4: + (pour OD = 0,2 à 0,4) | intensité de l'immunoréactivité (OD), Serum 5: - (pour une densité optique (OD) inférieure à 0,2) | intensité de l'immunoréactivité (OD), Serum 6: - (pour une densité optique (OD) inférieure à 0,2) | intensité de l'immunoréactivité (OD), Serum 7: +++ (pour OD = 0,8 à 2,0) | intensité de l'immunoréactivité (OD), Serum 8: +++ (pour OD = 0,8 à 2,0) | intensité de l'immunoréactivité (OD), Serum 9: +++ (pour OD = 0,8 à 2,0) | intensité de l'immunoréactivité (OD), Serum 10: - (pour une densité optique (OD) inférieure à 0,2) | intensité de l'immunoréactivité (OD), Serum 11: ++ (pour OD = 0,4 à 0,8) | intensité de l'immunoréactivité (OD), Serum 12: ++ (pour OD = 0,4 à 0,8) | intensité de l'immunoréactivité (OD), Serum 13: - (pour une densité optique (OD) inférieure à 0,2) | intensité de l'immunoréactivité (OD), Serum 14: ++ (pour OD = 0,4 à 0,8) | intensité de l'immunoréactivité (OD), Serum 15: - (pour une densité optique (OD) inférieure à 0,2) | intensité de l'immunoréactivité (OD), Serum 16: - (pour une densité optique (OD) inférieure à 0,2) | intensité de l'immunoréactivité (OD), Serum 17: - (pour une densité optique (OD) inférieure à 0,2) | intensité de l'immunoréactivité (OD), Serum 18: - (pour une densité optique (OD) inférieure à 0,2) | intensité de l'immunoréactivité (OD), Serum 19: +++ (pour OD = 0,8 à 2,0) | intensité de l'immunoréactivité (OD), Serum 20: - (pour une densité optique (OD) inférieure à 0,2) | intensité de l'immunoréactivité (OD), Serum 21: ++ (pour OD = 0,4 à 0,8) | intensité de l'immunoréactivité (OD), Serum 22: - (pour une densité optique (OD) inférieure à 0,2) | intensité de l'immunoréactivité (OD), Serum 23: - (pour une densité optique (OD) inférieure à 0,2) | intensité de l'immunoréactivité (OD), Serum 24: - (pour une densité optique (OD) inférieure à 0,2) | intensité de l'immunoréactivité (OD), Serum 25: +++ (pour OD = 0,8 à 2,0) | intensité de l'immunoréactivité (OD), Serum 26: +++ (pour OD = 0,8 à 2,0) | intensité de l'immunoréactivité (OD), Serum 27: - (pour une densité optique (OD) inférieure à 0,2) | intensité de l'immunoréactivité (OD), Serum 28: + (pour OD = 0,2 à 0,4) | intensité de l'immunoréactivité (OD), Serum 29: ++ (pour OD = 0,4 à 0,8) | intensité de l'immunoréactivité (OD), Serum 30: - (pour une densité optique (OD) inférieure à 0,2) | intensité de l'immunoréactivité (OD), Serum 31: +++ (pour OD = 0,8 à 2,0) | intensité de l'immunoréactivité (OD), Serum 32: - (pour une densité optique (OD) inférieure à 0,2) | intensité de l'immunoréactivité (OD), Serum 33: - (pour une densité optique (OD) inférieure à 0,2)
